Laboratory results as given in article PMC10137817, “Efficient Degradation for Raffinose and Stachyose of a β-D-Fructofuranosidase and Its New Function to Improve Gel Properties of Coagulated Fermented-Soymilk” (Gels, 2023).

Biological target: T1, LcFFase1s (β-D-fructofuranosidase) (Leptothrix cholodnii, UniProt B1Y2A2)
T1 construct: gene Lcho_3297; codon-optimised synthetic gene in pET-28a(+) NdeI/XhoI, E. coli BL21(DE3), Ni-IDA purified (His tag implied, cleavage not mentioned)
T1 sequence (B1Y2A2 1-480): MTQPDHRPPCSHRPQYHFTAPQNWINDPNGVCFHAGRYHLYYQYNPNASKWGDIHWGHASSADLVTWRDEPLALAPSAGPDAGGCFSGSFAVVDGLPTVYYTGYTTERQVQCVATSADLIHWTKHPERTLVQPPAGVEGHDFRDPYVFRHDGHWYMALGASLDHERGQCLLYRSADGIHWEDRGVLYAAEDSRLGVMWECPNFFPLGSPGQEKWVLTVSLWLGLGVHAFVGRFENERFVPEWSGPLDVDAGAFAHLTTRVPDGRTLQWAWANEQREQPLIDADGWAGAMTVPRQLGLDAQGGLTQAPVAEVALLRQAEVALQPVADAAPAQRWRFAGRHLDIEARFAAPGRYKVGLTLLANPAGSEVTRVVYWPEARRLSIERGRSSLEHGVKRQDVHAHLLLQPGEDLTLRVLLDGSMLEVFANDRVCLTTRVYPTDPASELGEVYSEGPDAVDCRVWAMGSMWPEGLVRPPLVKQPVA
Assay: TLC of hydrolysis products
Format: biochemical
Details: 20 mg/mL substrate, 5 U/mL enzyme, 50 mM sodium hydrogen phosphate-citrate pH 6.5, 40 °C

| Compound | TLC of hydrolysis products |
| --- | --- |
| OC[C@H]1O[C@H](OC[C@H]2O[C@H](O[C@]3(CO)O[C@H](CO)[C@@H](O)[C@@H]3O)[C@H](O)[C@@H](O)[C@@H]2O)[C@H](O)[C@@H](O)[C@H]1O [raffinose] | LcFFase1s entirely hydrolyzed raffinose and stachyose into fructose and melibiose or raffinose |
| OC[C@H]1O[C@H](OC[C@H]2O[C@H](OC[C@H]3O[C@H](O[C@]4(CO)O[C@H](CO)[C@@H](O)[C@@H]4O)[C@H](O)[C@@H](O)[C@@H]3O)[C@H](O)[C@@H](O)[C@H]2O)[C@H](O)[C@@H](O)[C@H]1O [stachyose] | LcFFase1s entirely hydrolyzed raffinose and stachyose into fructose and melibiose or raffinose |
